Experimental data taken from article PMC5011342, “A high throughput drug screening assay to identify compounds that promote oligodendrocyte differentiation using acutely dissociated and purified oligodendrocyte precursor cells” (BMC Research Notes, 2016).
Like-named read-outs stand apart in the source and are kept apart here.

Tests used:
[1] = tested on: acutely dissociated and purified rat OPCs; assay: Acute OL differentiation assay (MBP expression/cell, immunofluorescent image quantification); format: cell-based; settings: Rattus norvegicus, sheet "All OLga data"
Outline: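 Oligodendrocyte precursor cells were enriched from P6-P7 Sprague–Dawley rat brains by immunopanning (RAN-2 and GalC depletion, O4 selection), plated at 5000 cells/well in serum-free, mitogen-free differentiation media on PDL/laminin 96-well view plates, centrifuged at 200×g, and pre-incubated 1–2 h before test compounds were added in quadruplicate. On DIV4, cells were fixed, stained for MBP and DAPI, imaged automatically, and MBP expression per cell was quantified.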

expanded OPCs = assay: cells; settings: for viability at 0.1 µM / viability at 1 µM / viability at 10 µM: Rattus norvegicus, 72 h; for 0.1 µM (% DMSO) / 1 µM (% DMSO) / 10 µM (% DMSO): alamarBlue viability of expanded OPCs, relative to DMSO control; for 0.1 µM (% DMSO): compound at 0.1 µM; for 1 µM (% DMSO): compound at 1 µM; for 10 µM (% DMSO): compound at 10 µM
Outline: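 Expanded OPCs seeded at 10,000 cells/well in differentiation media, then exposed to NCC library compounds at 10, 1 and 0.1 µM (quadruplicate, 0.1% DMSO) for three days. Viability read as alamarBlue fluorescence (560/590 nm) after 4 h at 37 °C; tunicamycin 5 ng/ml served as toxicity control.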

[2] = 2 uM test compound, relative to quetiapine, read-out: OL differentiation, 2 uM (% Quet)
[3] = 10 uM test compound, relative to quetiapine, read-out: OL differentiation, 10 uM (% Quet)
[4] = read-out: 0.1 µM (% DMSO), alamarBlue viability of expanded OPCs, compound at 0.1 µM, sheet All Tox data
[5] = read-out: 1 µM (% DMSO), alamarBlue viability of expanded OPCs, compound at 1 µM, sheet All Tox data
[6] = read-out: 10 µM (% DMSO), alamarBlue viability of expanded OPCs, compound at 10 µM, sheet All Tox data
[7] = test compound at 2 uM, NCC library screen, relative to quetiapine, read-out: 2 uM (% Quet)
[8] = test compound at 10 uM, NCC library screen, relative to quetiapine, read-out: 10 uM (% Quet)
[9] = 0.4 uM test compound, relative to quetiapine, read-out: OL differentiation, 0.4 uM (% Quet)
[10] = read-out: 0.1 µM (% DMSO), alamarBlue viability, NCC library compound at 0.1 µM, sheet "All Tox data"
[11] = read-out: 1 µM (% DMSO), alamarBlue viability, NCC library compound at 1 µM, sheet "All Tox data"
[12] = read-out: 10 µM (% DMSO), alamarBlue viability, NCC library compound at 10 µM, sheet "All Tox data"
[13] = test compound at 2 uM, MBP expression relative to quetiapine, NCC library screen, read-out: 2 uM (% Quet)
[14] = test compound at 10 uM, MBP expression relative to quetiapine, NCC library screen, read-out: 10 uM (% Quet)

c1cncc([C@@H]2CCCN2)c1 [Nornicotine] was tested, and the activation at 2 µM [1, 2] was 18.1%, the activation at 10 µM [1, 3] was 10.4% and the viability at 0.1 µM (expanded OPCs; [4]) was 86%. It also gave a viability at 1 µM (expanded OPCs; [5]) of 101% and a viability at 10 µM (expanded OPCs; [6]) of 98.4%.
CNCCC=C1c2ccccc2CCc2ccccc21 [Nortriptyline] was tested, and the activation at 0.08 µM ([1]; test compound at 0.08 uM, NCC library screen, relative to quetiapine, read-out: 0.08 uM (% Quet)) was 2.3%, the activation at 0.4 µM ([1]; test compound at 0.4 uM, NCC library screen, relative to quetiapine, read-out: 0.4 uM (% Quet)) was -28.1% and the “0.1 µM (% DMSO)” value (expanded OPCs) was 66.6 % DMSO. For the same compound, the “1 µM (% DMSO)” value (expanded OPCs) was 28.2 % DMSO and the “10 µM (% DMSO)” value (expanded OPCs) was 13.8 % DMSO.
For CC1COc2c(N3CCN(C)CC3)c(F)cc3c(=O)c(C(=O)O)cn1c23 (centres unmarked) [Ofloxacin], the activation at 2 µM [1, 2] was -4.3%, the activation at 10 µM [1, 3] was 4.9% and the activation at 2 µM [1, 7] was 3.8%. It also gave an activation at 10 µM [1, 8] of -3.8%, a viability at 0.1 µM (expanded OPCs; [4]) of 95.3% and a viability at 1 µM (expanded OPCs; [5]) of 91.5%. For the same compound, the viability at 10 µM (expanded OPCs; [6]) was 99.5%, the “0.1 µM (% DMSO)” value (expanded OPCs) was 93.4 % DMSO and the “1 µM (% DMSO)” value (expanded OPCs) was 91.6 % DMSO. For the same compound, the “10 µM (% DMSO)” value (expanded OPCs) was 89.4 % DMSO.
For Cc1cc2c(s1)Nc1ccccc1N=C2N1CCN(C)CC1 [Olanzapine], the activation at 0.4 µM [1, 9] was -3%, the activation at 2 µM [1, 2] was -9.8% and the viability at 0.1 µM (expanded OPCs; [4]) was 90.8%. For the same compound, the viability at 1 µM (expanded OPCs; [5]) was 60.6% and the viability at 10 µM (expanded OPCs; [6]) was 30.2%.
CC[C@@H]1C=CC=CC[C@H](C)[C@@H](O)[C@@H](C)C(=O)[C@H](C)[C@@H](O)[C@H](C)C(=O)[C@H](C)[C@@H](O)[C@H](C)C=CC(=O)O[C@H]2[C@@H](C)[C@@H](CC1)O[C@@]1(CC[C@@H](C)[C@@H](C[C@H](C)O)O1)[C@@H]2C [Oligomycin C] showed an activation at 2 µM [1, 2] of -33.8%, an activation at 10 µM [1, 3] of -128% and a viability at 0.1 µM (expanded OPCs; [4]) of 86.9%. For the same compound, the viability at 1 µM (expanded OPCs; [5]) was 87% and the viability at 10 µM (expanded OPCs; [6]) was 68.4%.
For CCCc1nc(C(C)(C)O)c(C(=O)O)n1Cc1ccc(-c2ccccc2-c2nnn[nH]2)cc1 [Olmesartan], the activation at 2 µM [1, 2] was -15.6%, the activation at 10 µM [1, 3] was -11.9% and the viability at 0.1 µM (expanded OPCs; [4]) was 91.4%. It also gave a viability at 1 µM (expanded OPCs; [5]) of 87.4% and a viability at 10 µM (expanded OPCs; [6]) of 93.9%.
Compound CN(C)CC/C=C1/c2ccccc2COc2ccc(CC(=O)O)cc21 [Olopatadine] has an activation at 2 µM [1, 7] of -29.3%, an activation at 10 µM [1, 8] of -29% and a viability at 0.1 µM (expanded OPCs; [10]) of 88.7%. The viability at 1 µM (expanded OPCs; [11]) was 89.3% and the viability at 10 µM (expanded OPCs; [12]) was 77.6%.
COc1ccc2[nH]c([S+]([O-])Cc3ncc(C)c(OC)c3C)nc2c1 (centres unmarked) [Omeprazole] showed an activation at 2 µM [1, 7] of -5.2%, an activation at 10 µM [1, 8] of 5.2% and a viability at 0.1 µM (expanded OPCs; [10]) of 84.3%. It also gave a viability at 1 µM (expanded OPCs; [11]) of 88.4% and a viability at 10 µM (expanded OPCs; [12]) of 85.8%.
Work on Cc1nccn1CC1CCc2c(c3ccccc3n2C)C1=O (centres unmarked) [Ondansetron] yielded an activation at 2 µM [1, 2] of 4.2%, an activation at 10 µM [1, 3] of -7.7% and an activation at 2 µM [1, 13] of 3%. It also gave an activation at 10 µM [1, 14] of 3.5%, a viability at 0.1 µM (expanded OPCs; [4]) of 92.9% and a viability at 1 µM (expanded OPCs; [5]) of 92.2%. For the same compound, the viability at 10 µM (expanded OPCs; [6]) was 102%, the “0.1 µM (% DMSO)” value (expanded OPCs) was 95.7 % DMSO and the “1 µM (% DMSO)” value (expanded OPCs) was 92.7 % DMSO. The “10 µM (% DMSO)” value (expanded OPCs) was 90.9 % DMSO.
In the case of CCCCCCCCCCC[C@@H](C[C@@H]1OC(=O)[C@H]1CCCCCC)OC(=O)[C@H](CC(C)C)NC=O [Orlistat], the activation at 0.4 µM [1, 9] is reported as 4.3%, the activation at 2 µM [1, 2] is reported as -43.8% and the viability at 0.1 µM (expanded OPCs; [4]) is reported as 80.3%. The viability at 1 µM (expanded OPCs; [5]) was 80.1% and the viability at 10 µM (expanded OPCs; [6]) was 12.5%.
With COc1cc(C)c(Cc2cnc(N)nc2N)cc1OC [Ormetoprim] the activation at 2 µM [1, 2] was -23.4%, the activation at 10 µM [1, 3] was -8.2% and the viability at 0.1 µM (expanded OPCs; [4]) was 101%. It also gave a viability at 1 µM (expanded OPCs; [5]) of 91% and a viability at 10 µM (expanded OPCs; [6]) of 95.4%.
For Cc1ncc([N+](=O)[O-])n1CC(O)CCl (centres unmarked) [Ornidazole], the activation at 2 µM [1, 2] was 4.7%, the activation at 10 µM [1, 3] was 13% and the viability at 0.1 µM (expanded OPCs; [10]) was 106%. For the same compound, the viability at 1 µM (expanded OPCs; [11]) was 91.3% and the viability at 10 µM (expanded OPCs; [12]) was 82.2%.
Work on CCN(CC)CC1CCCCN1CC(=O)N1c2ccccc2C(=O)Nc2cccnc21 (centres unmarked) [Otenzepad] yielded an activation at 2 µM [1, 7] of 11.2%, an activation at 10 µM [1, 8] of 13.5% and a viability at 0.1 µM (expanded OPCs; [10]) of 91.2%. The viability at 1 µM (expanded OPCs; [11]) was 81.4% and the viability at 10 µM (expanded OPCs; [12]) was 75.7%.
With Cc1onc(-c2ccccc2)c1C(=O)N[C@@H]1C(=O)N2[C@@H]1SC(C)(C)[C@@H]2C(=O)O [Oxacillin] the activation at 2 µM [1, 13] was -14.9%, the activation at 10 µM [1, 14] was -26.1% and the “0.1 µM (% DMSO)” value (expanded OPCs) was 96.9 % DMSO. For the same compound, the “1 µM (% DMSO)” value (expanded OPCs) was 96.8 % DMSO and the “10 µM (% DMSO)” value (expanded OPCs) was 93.4 % DMSO.
